In patent US20110224240A1 (Myrexis, Inc., priority 2010, published 2011):
Several values for one entry are separate records, joined by “and”; a condition that tells them apart may be missing. Equal values may be shown once. Read-outs that look alike come from different tables or passages of the source. Marks after values point to notes of the source that are not given here.

Assays:
[1] = tested on: multiple cancer cell lines; test: Pro-apoptotic activity in multiple cancer cell lines; type: cell-based
[2] = tested on: MCF-7/MX (BCRP-1); test: Multidrug resistant cell assay, cytotoxicity; type: cell-based; details: MCF7/MX, 72 h, read-out: Various MDR Cell Line Cytotoxicity IC50
[3] = tested on: P388 murine leukemia cell line; test: 72 hour cytotoxicity, ATP-Lite cell viability; type: cell-based; details: Mus musculus, P388, Lymphoma, read-out: 72 Hour Cytotoxicity (IC50, nM ± SD)
Protocol: A P388 murine leukemia cell line was obtained from NCI, Frederick, Md. P388 cells were cultured in RPMI-1640 supplemented with 10% fetal bovine serum, 2 mM Glutamax, 1 mM sodium pyruvate, 0.1 mM non-essential amino acids and 10 mM HEPES. Cells were grown at 37° C. in a humidified 5% CO2 atmosphere. Exponentially growing P388 cells were plated at 5,000 cells/well in a 96-well flat-bottomed microtiter plate (Corning, Costar #3595, Lowell, Mass.). Twenty-four hours later, test compound was added to cells at final concentrations of 100 nM, 33.3 nM, 11.1 nM, 3.7 nM, 1.23 nM, 0.4 nM and 0.13 nM. Cellular viability was determined 72 hours later by measuring intracellular ATP with ATP-Lite assay system. The effect of compounds on cell viability was calculated by comparing the ATP levels of cells exposed to test compound with those of cells exposed to DMSO. A semi-log plot of relative ATP levels versus compound concentration was used to calculate the compound concentration required to inhibit growth by 50% (IC50). Data was analyzed by Prism software (GraphPad; San Diego, Calif.) by fitting it to a sigmoidal dose response curve.

[4] = tested on: B16-F0 tumor; test: B16-F0 melanoma allograft study in nude mice; type: in vivo; details: melanoma (B16-F0) allografts in nude mice, oral dosing (50 mg/kg qd×5 or 200 mg/kg qwk×2 p.o.), relative to vehicle
Protocol: Female Crl:Nu/Nu-nuBR mice (Charles River Labs, Wilmington, Mass.) were implanted subcutaneously with 10^6 B16-F0 cells in the right flank. Animals were housed by groups in Positive Individual Ventilation cages in flat-bottom cages with no more than ten mice per cage. Environmental controls were set to maintain a temperature between 65 and 75° F. with a relative humidity of 30-70% in a 12:12 hour light:dark cycle. Animals were fed and watered ad libitum. Tumors were allowed to grow to approximately 100 mm^3 and then mice were placed into test groups (N=10). Animals were treated with vehicle, 50 mg/kg Compound 1 qd×5 p.o. or 200 mg/kg Compound 1 qwk×2 p.o. The mice were observed daily for mortality and signs of toxicity. Tumor growth was monitored externally using a caliper and volumes calculated using the formula [p/6 (width^2×length)], in which width represents the smaller tumor diameter. Studies were completed when the first animal achieved a tumor volume >1500 mm^3. Statistical analysis of variance with unadjusted pair wise comparison was performed using SAS software (Cary, N.C.).

[5] = tested on: MCF-7; test: Multidrug resistant cell assay, cytotoxicity; type: cell-based; details: Homo sapiens, MCF7, 72 h, read-out: Various MDR Cell Line Cytotoxicity IC50
[6] = tested on: P388/ADR (MDR-1); test: Multidrug resistant cell assay, cytotoxicity; type: cell-based; details: 72 hours, read-out: Various MDR Cell Line Cytotoxicity IC50
Protocol: P388/ADR cell lines were obtained from American Type Culture Collection (Manassas, Va.) and maintained in RPMI-1640 media supplemented with 10% FCS, 10 units/ml penicillin and streptomycin, 2 mM Glutamax and 1 mM sodium pyruvate (Invitrogen Corporation, Carlsbad, Calif.). […] Cells were allowed to adhere to the plate overnight and then incubated with the compound at final concentrations ranging from 0.13 nM to 10 uM for 72 hours. Cell viability was then assessed using the ATP-lite reagent (Perkin Elmer, Foster City, Calif.). Plates were read on a Wallac Topcount luminescence reader (Perkin Elmer, Foster City, Calif.) and the results graphed in Prism software (Graphpad Software, Inc., San Diego, Calif.). Non-linear regression with variable slope analysis was performed to obtain IC50 concentration values.

[7] = Pharmacokinetic study in mice, plasma; type: in vivo
Protocol: Animals were dosed with approximately 2.5 mg/kg i.v. in the tail vein or 5, 10, 30, or 60 mg/kg p.o. in fed and 60 mg/kg p.o. in a fasted state. Blood samples and whole brains were collected from five mice at each of the […] collection time points (approximately 0.05, 0.25, 1.0, 2.0, 4.0, 8.0, 12.0 and 24.0 hours) after administration of the dose. Plasma was collected from blood samples, and whole brain sample were homoginized. Both tissues were analyzed for the concentration of Compound 1. Pharmacokinetic parameters were estimated by non-compartmental analysis using WinNonlin.

[8] = Pharmacokinetic study in a primate, plasma; type: in vivo, cynomolgus monkey; details: for Compound 1 Plasma Concentration: cynomolgus monkey, oral 20 mg/kg
Protocol: A single non-naïve male cynomolgus monkey was assigned to this study. […] Compound 1 was administered once orally via a gavage tube. The gavage tube was rinsed with water and removed. Blood was removed through the femoral artery/vein into a tube containing K3EDTA. The samples were centrifuged and the resulting plasma was separated and stored at approximately −70° C. until shipment to the analysis site. At the analysis site, the samples were stored at −20° C. until the day of analysis.
Plasma samples were analyzed for Compound 1 concentration using a LC-MS/MS method. The range of quantitation was 5-5000 ng/mL and utilized a 0.1 mL plasma sample volume. Concentration-time curves were constructed using WinNonlin (version 5.1.1).

[9] = tested on: MCF-7/VP (MRP-1); test: Multidrug resistant cell assay, cytotoxicity; details: Homo sapiens, MCF7-VP, 72 h, read-out: Various MDR Cell Line Cytotoxicity IC50
[10] = Swiss Webster, mouse, plasma, iv, 2.5 mg/kg, mice, Not Fasted
[11] = Swiss Webster, mouse, plasma, po, 60 mg/kg, mice, Fasted
[12] = Swiss Webster, mouse, plasma, po, 60 mg/kg, mice, Not Fasted
[13] = male cynomolgus monkey, fasted, single oral dose 20 mg/kg, plasma

With `COc1ccc(N(C)c2nc(CN)nc3ccccc23)cc1` [Compound 1] as the molecule, how does the “pro-apoptotic activity, potency” value ([1]; multiple cancer types including pancreatic, breast, colorectal, non-small cell lung, melanoma, ovarian cancers and leukemia) read?
Its value is “potency at low nanomolar concentrations”.

What about the “induction of apoptosis versus ABC transporter expression” value ([1]; regardless of expression levels of MDR-1 (Pgp-1), MRP-1, BCRP-1) of the same molecule?
Its value is “equipotent for induction of apoptosis”.

And the IC50 [2]?
Its IC50 is 9 nM.

What about the IC50 [3] of the same molecule?
The IC50 was 6.1 ± 2.2 nM.

And the “inhibition of tumor growth” value [4]?
The value was “Statistically significant (p<0.00005) inhibition of tumor growth”.

What about the IC50 [5] of the same molecule?
The IC50 was 27 nM.

What about the IC50 [6] of the same molecule?
Its IC50 is 27 nM.

What about the AUC(0-inf) [7, 10] of the same molecule?
Its AUC(0-inf) is 467 ng·h/mL.

And the Cmax [7, 10]?
The Cmax was 513 ng/mL and 1.7 µM.

And the Tmax [7, 10]?
Its Tmax is 0.05 h.

What about the half-life ([7]; Swiss Webster, mouse, plasma, iv, 2.5 mg/kg, mice, Not Fasted, IV, 2.5 mg/kg, read-out: Plasma t½ (converted)) of the same molecule?
Its half-life is 6.2 h.

What about the half-life ([7]; Swiss Webster, mouse, plasma, po, 60 mg/kg, 60 mg/kg dose in mice, oral, read-out: half life (t1/2) (converted)) of the same molecule?
The half-life was about 10 h.

What about the bioavailability ([7]; Swiss Webster, mouse, plasma, po, 60 mg/kg, 60 mg/kg dose in mice, read-out: oral bioavailability) of the same molecule?
The bioavailability was about 100%.

And the AUC(0-inf) [7, 11]?
The AUC(0-inf) was 12900 ng·h/mL.

And the Cmax [7, 11]?
The Cmax was 1090 ng/mL and 3.7 µM.

What about the Tmax [7, 11] of the same molecule?
The Tmax was 1 h.

And the bioavailability ([7]; Swiss Webster, mouse, plasma, po, 60 mg/kg, mice, Fasted, PO, 60 mg/kg, read-out: % F)?
The bioavailability was 115%.

What about the half-life ([7]; Swiss Webster, mouse, plasma, po, 60 mg/kg, mice, Fasted, PO, 60 mg/kg, read-out: Plasma t½ (converted)) of the same molecule?
Its half-life is 18.3 h.

And the AUC(0-inf) [7, 12]?
The AUC(0-inf) was 10700 ng·h/mL.

What about the Cmax [7, 12] of the same molecule?
The Cmax was 1120 ng/mL and 3.8 µM.

And the Tmax [7, 12]?
Its Tmax is 0.25 h.

What about the bioavailability ([7]; Swiss Webster, mouse, plasma, po, 60 mg/kg, mice, Not Fasted, PO, 60 mg/kg, read-out: % F) of the same molecule?
Its bioavailability is 96%.

What about the half-life ([7]; Swiss Webster, mouse, plasma, po, 60 mg/kg, mice, Not Fasted, PO, 60 mg/kg, read-out: Plasma t½ (converted)) of the same molecule?
Its half-life is 10.8 h.

And the clearance ([7]; Swiss Webster, mouse, plasma, mice, Not Fasted, IV, 2.5 mg/kg, read-out: Plasma CL (converted))?
The clearance was 89.3 mL/min/kg.

What about the “bioavailability after oral dosing” value ([7]; mice) of the same molecule?
The value was “almost completely bioavailable”.

And the “oral dose proportionality to plasma Cmax” value ([7]; mice dosed orally up to at least 60 mg/kg)?
Its value is “Dose proportional increases in Cmax”.

What about the “differences in pharmacokinetics between fed and fasted animals” value ([7]; mice, 60 mg/kg p.o.) of the same molecule?
The value was “No significant differences in pharmacokinetics”.

And the “Plasma CL” value ([7]; mice, Fasted, PO, 60 mg/kg)?
Its value is 77.8 mL/min/kg.

What about the “Plasma V” value ([7]; mice, Fasted, PO, 60 mg/kg) of the same molecule?
Its value is 123.424 L/kg.

And the “Plasma V” value ([7]; mice, Not Fasted, IV, 2.5 mg/kg)?
The value was 47.759 L/kg.

What about the “Plasma CL” value ([7]; mice, Not Fasted, PO, 60 mg/kg) of the same molecule?
The value was 93.05 mL/min/kg.

What about the “Plasma V” value ([7]; mice, Not Fasted, PO, 60 mg/kg) of the same molecule?
Its value is 86.914 L/kg.

What about the “Compound 1 Plasma Concentration” value ([8]; Post Dose Sample Time 0) of the same molecule?
Its value is 3.08* ng/mL.

And the “Compound 1 Plasma Concentration” value ([8]; Post Dose Sample Time 0.25)?
Its value is 27.40 ng/mL.

What about the “Compound 1 Plasma Concentration” value ([8]; Post Dose Sample Time 0.5) of the same molecule?
The value was 64.15 ng/mL.

What about the “Compound 1 Plasma Concentration” value ([8]; Post Dose Sample Time 1) of the same molecule?
The value was 112.05 ng/mL.

What about the “Compound 1 Plasma Concentration” value ([8]; Post Dose Sample Time 2) of the same molecule?
Its value is 166.01 ng/mL.

And the “Compound 1 Plasma Concentration” value ([8]; Post Dose Sample Time 6)?
The value was 18.72 ng/mL.

What about the “Compound 1 Plasma Concentration” value ([8]; Post Dose Sample Time 12) of the same molecule?
Its value is 3.91* ng/mL.

What about the “oral bioavailability” value ([8]; male cynomolgus monkey dosed orally at 20 mg/kg) of the same molecule?
Its value is “bioavailable”.

What about the AUC(0-inf) [8, 13] of the same molecule?
The AUC(0-inf) was 536 ng·h/mL.

And the CL/F [8, 13]?
Its CL/F is 622 mL/min/kg.

And the Cmax [8, 13]?
Its Cmax is 166 ng/mL.

And the Tlast [8, 13]?
Its Tlast is 12.0 h.

And the Tmax [8, 13]?
Its Tmax is 2 h.

What about the half-life [8, 13] of the same molecule?
The half-life was 1.9 h.

What about the Vd/F ([8]; male cynomolgus monkey, fasted, single oral dose 20 mg/kg, plasma, read-out: Vz/F_obs) of the same molecule?
The Vd/F was 102 L/kg.

And the IC50 [9]?
The IC50 was 13 nM.
